How the values were obtained:
[1] = system: mites in Brinjal; assay: Trial of efficacy on mites in Brinjal; type: in vivo
Description: Trials were conducted to test the efficacy of the combination of Chlorantraniliprole+Bifenthrin+Bifenazate on mites in Brinjal: […]

[2] = system: Lucinodes arbonalis; assay: Trial of efficacy on Lucinodes arbonalis in Brinjal; type: in vivo
Description: Trials were conducted to test the efficacy of the combination of Chlorantraniliprole+Bifenthrin+Bifenazate on Lucinodes arbonalis in Brinjal: […]

**Q.** With `Cc1c(COC(=O)[C@@H]2[C@H](/C=C(\Cl)C(F)(F)F)C2(C)C)cccc1-c1ccccc1` (racemic) [Bifenthrin] as the compound, how does the “% mortality 3 DAA” value ([1]; dose 40 gm. ai/ha) read?
**A.** 75%

**Q.** What about the “% mortality 7 DAA” value ([1]; dose 40 gm. ai/ha) of the same compound?
**A.** 80%

**Q.** What about the “% mortality 10 DAA” value ([1]; dose 40 gm. ai/ha) of the same compound?
**A.** 75%

**Q.** What about the “% mortality 14 DAA” value ([1]; dose 40 gm. ai/ha) of the same compound?
**A.** 65%

**Q.** What about the “% mortality 3 DAA” value ([2]; dose 40 gm. ai/ha) of the same compound?
**A.** 55%

**Q.** And the “% mortality 7 DAA” value ([2]; dose 40 gm. ai/ha)?
**A.** 65%

**Q.** And the “% mortality 10 DAA” value ([2]; dose 40 gm. ai/ha)?
**A.** 53%

**Q.** What about the “% mortality 14 DAA” value ([2]; dose 40 gm. ai/ha) of the same compound?
**A.** 41%

**Q.** How did the “% mortality 3 DAA” value ([1]; dose 150 gm. ai/ha) turn out when `COc1ccc(-c2ccccc2)cc1NNC(=O)OC(C)C` [Bifenazate] was run?
**A.** 65%

**Q.** And the “% mortality 7 DAA” value ([1]; dose 150 gm. ai/ha)?
**A.** 95.1%

**Q.** What about the “% mortality 10 DAA” value ([1]; dose 150 gm. ai/ha) of the same compound?
**A.** 85%

**Q.** And the “% mortality 14 DAA” value ([1]; dose 150 gm. ai/ha)?
**A.** 75%

**Q.** What about the “% mortality 3 DAA” value ([2]; dose 150 gm. ai/ha) of the same compound?
**A.** 9.9%

**Q.** What about the “% mortality 7 DAA” value ([2]; dose 150 gm. ai/ha) of the same compound?
**A.** 12%

**Q.** And the “% mortality 10 DAA” value ([2]; dose 150 gm. ai/ha)?
**A.** 10.9%

**Q.** What about the “% mortality 14 DAA” value ([2]; dose 150 gm. ai/ha) of the same compound?
**A.** 7.9%

**Q.** How did the “% mortality 3 DAA” value ([1]; dose 30 gm. ai/ha) turn out when `CNC(=O)c1cc(Cl)cc(C)c1NC(=O)c1cc(Br)nn1-c1ncccc1Cl` [Chlorantraniliprole] was run?
**A.** 9.9%

**Q.** And the “% mortality 7 DAA” value ([1]; dose 30 gm. ai/ha)?
**A.** 8.9%

**Q.** And the “% mortality 10 DAA” value ([1]; dose 30 gm. ai/ha)?
**A.** 7.9%

**Q.** And the “% mortality 14 DAA” value ([1]; dose 30 gm. ai/ha)?
**A.** 10.9%

**Q.** What about the “% mortality 3 DAA” value ([2]; dose 30 gm. ai/ha) of the same compound?
**A.** 80%

**Q.** What about the “% mortality 7 DAA” value ([2]; dose 30 gm. ai/ha) of the same compound?
**A.** 90.1%

**Q.** What about the “% mortality 10 DAA” value ([2]; dose 30 gm. ai/ha) of the same compound?
**A.** 89.1%

**Q.** What about the “% mortality 14 DAA” value ([2]; dose 30 gm. ai/ha) of the same compound?
**A.** 79%
